# Patent publication US20260374756A1, “HETEROCYCLIC COMPOUNDS AS INHIBITORS OF MONOACYLGLYCEROL LIPASE (MAGL)” (Hoffmann-La Roche Inc., priority 2022, published 2026)
# pIC50: −log10 of the molar value.
# Molecular target: T1, hMAGL (Homo sapiens, UniProt Q99685)
# T1 sequence (Q99685 1-303): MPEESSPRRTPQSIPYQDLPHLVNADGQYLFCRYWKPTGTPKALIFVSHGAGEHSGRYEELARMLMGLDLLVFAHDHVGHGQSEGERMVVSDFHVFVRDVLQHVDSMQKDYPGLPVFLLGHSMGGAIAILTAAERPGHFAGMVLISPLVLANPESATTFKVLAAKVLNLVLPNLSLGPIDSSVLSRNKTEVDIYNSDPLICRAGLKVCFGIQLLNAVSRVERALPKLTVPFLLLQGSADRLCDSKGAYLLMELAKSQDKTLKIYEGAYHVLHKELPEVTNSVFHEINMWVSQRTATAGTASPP
# Assay: 2-AG assay: MAGL inhibition, hydrolysis of 2-arachidonoylglycerol to arachidonic acid followed by mass spectrometry
# Type: biochemical
# Method in brief: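 MAGL preincubated with compound 15 min at RT in 50 mM Tris, 1 mM EDTA, 0.01% Tween-20, 2.5% DMSO; reaction started with 8 μM 2-AG (final), […], 30 min at RT. Quenched with acetonitrile containing d8-arachidonic acid; arachidonic acid quantified by RapidFire SPE-triple quad MS as arachidonic acid/d8 ratio.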
row,Compound,pIC50
1,"O=C(N1CC2(CC(n3cnc(C4CC4)n3)C2)C1)N1CC2(CN(Cc3nccn3C(F)(F)F)C2)C1 [Example 236, [6-(3-cyclopropyl-1,2,4-triazol-1-yl)-2-azaspiro[3.3]heptan-2-yl]-[6-[[1-(trifluoromethyl)imidazol-2-yl]methyl]-2,6-diazaspiro[3.3]heptan-2-yl]methanone]",7.74
2,"O=C(N1CC2(CC(n3cnc(C(F)(F)F)n3)C2)C1)N1CC2(CN(Cc3nc[nH]c3C(F)(F)F)C2)C1 [Example 237, [6-[[5-(trifluoromethyl)-1H-imidazol-4-yl]methyl]-2,6-diazaspiro[3.3]heptan-2-yl]-[6-[3-(trifluoromethyl)-1,2,4-triazol-1-yl]-2-azaspiro[3.3]heptan-2-yl]methanone]",6.80
3,"O=C(N1CC2(CC(n3cnc(C4CC4)n3)C2)C1)N1CC2(CN(Cc3nc[nH]c3C(F)(F)F)C2)C1 [Example 238, [6-(3-cyclopropyl-1,2,4-triazol-1-yl)-2-azaspiro[3.3]heptan-2-yl]-[6-[[5-(trifluoromethyl)-1H-imidazol-4-yl]methyl]-2,6-diazaspiro[3.3]heptan-2-yl]methanone]",7.37
4,"O=C(N1CC2(CC(n3cnc(C(F)(F)F)n3)C2)C1)N1CC2(CN(Cc3nc(C4CC4)cs3)C2)C1 [Example 239, [6-[(4-cyclopropylthiazol-2-yl)methyl]-2,6-diazaspiro[3.3]heptan-2-yl]-[6-[3-(trifluoromethyl)-1,2,4-triazol-1-yl]-2-azaspiro[3.3]heptan-2-yl]methanone]",7.73
5,"O=C(N1CC2(CC(n3cnc(C4(O)CC4)n3)C2)C1)N1CC2(CN(Cc3nc(C4CC4)cs3)C2)C1 [Example 240, [6-[(4-cyclopropylthiazol-2-yl)methyl]-2,6-diazaspiro[3.3]heptan-2-yl]-[6-[3-(1-hydroxycyclopropyl)-1,2,4-triazol-1-yl]-2-azaspiro[3.3]heptan-2-yl]methanone]",6.63
6,"O=C(N1CC2(CC(n3cnc(C(F)(F)F)n3)C2)C1)N1CC2(CN(Cc3cc(C(F)(F)F)[nH]n3)C2)C1 [Example 241, [6-[[5-(trifluoromethyl)-1H-pyrazol-3-yl]methyl]-2,6-diazaspiro[3.3]heptan-2-yl]-[6-[3-(trifluoromethyl)-1,2,4-triazol-1-yl]-2-azaspiro[3.3]heptan-2-yl]methanone]",7.73
7,"O=C(N1CC2(CC(n3cnc(C4CC4)n3)C2)C1)N1CC2(CN(Cc3cc(C(F)(F)F)[nH]n3)C2)C1 [Example 242, [6-(3-cyclopropyl-1,2,4-triazol-1-yl)-2-azaspiro[3.3]heptan-2-yl]-[6-[[5-(trifluoromethyl)-1H-pyrazol-3-yl]methyl]-2,6-diazaspiro[3.3]heptan-2-yl]methanone]",8.43
8,"Cn1nnc(CN2CC3(C2)CN(C(=O)N2CC4(CC(n5cnc(C(F)(F)F)n5)C4)C2)C3)c1C(F)(F)F [Example 243, [6-[[1-methyl-5-(trifluoromethyl)triazol-4-yl]methyl]-2,6-diazaspiro[3.3]heptan-2-yl]-[6-[3-(trifluoromethyl)-1,2,4-triazol-1-yl]-2-azaspiro[3.3]heptan-2-yl]methanone]",7.02
9,"Cn1nnc(CN2CC3(C2)CN(C(=O)N2CC4(CC(n5cnc(C6CC6)n5)C4)C2)C3)c1C(F)(F)F [Example 244, [6-(3-cyclopropyl-1,2,4-triazol-1-yl)-2-azaspiro[3.3]heptan-2-yl]-[6-[[1-methyl-5-(trifluoromethyl)triazol-4-yl]methyl]-2,6-diazaspiro[3.3]heptan-2-yl]methanone]",7.64
10,"O=C(N1CC2(CC(n3cnc(C4CC4)n3)C2)C1)N1CC2(CN(Cc3nc(-c4ccccc4)no3)C2)C1 [Example 245, [6-(3-cyclopropyl-1,2,4-triazol-1-yl)-2-azaspiro[3.3]heptan-2-yl]-[6-[(3-phenyl-1,2,4-oxadiazol-5-yl)methyl]-2,6-diazaspiro[3.3]heptan-2-yl]methanone]",8.92
11,"Cn1ncc(OC2CC3(C2)CN(C(=O)N2CC4(CC(n5cnc(C(F)(F)F)n5)C4)C2)C3)c1C(F)(F)F [Example 246, [6-[1-methyl-5-(trifluoromethyl)pyrazol-4-yl]oxy-2-azaspiro[3.3]heptan-2-yl]-[6-[3-(trifluoromethyl)-1,2,4-triazol-1-yl]-2-azaspiro[3.3]heptan-2-yl]methanone]",8.40
12,"Cn1ncc(OC2CC3(C2)CN(C(=O)N2CC4(CC(n5cnc(C6CC6)n5)C4)C2)C3)c1C(F)(F)F [Example 247, [6-(3-cyclopropyl-1,2,4-triazol-1-yl)-2-azaspiro[3.3]heptan-2-yl]-[6-[1-methyl-5-(trifluoromethyl)pyrazol-4-yl]oxy-2-azaspiro[3.3]heptan-2-yl]methanone]",9.04
13,"O=C(N1CC2(CC(Oc3cnn(CC(F)(F)F)c3)C2)C1)N1CC2(CC(c3cc(C4CC4)n[nH]3)C2)C1 [Example 248, [6-(3-cyclopropyl-1H-pyrazol-5-yl)-2-azaspiro[3.3]heptan-2-yl]-[6-[1-(2,2,2-trifluoroethyl)pyrazol-4-yl]oxy-2-azaspiro[3.3]heptan-2-yl]methanone]",7.72
14,"O=C(N1CC2(CC(Oc3cnn(CC(F)(F)F)c3)C2)C1)N1CC2(CC(n3cnc(C4CC4)n3)C2)C1 [Example 249, [6-(3-cyclopropyl-1,2,4-triazol-1-yl)-2-azaspiro[3.3]heptan-2-yl]-[6-[1-(2,2,2-trifluoroethyl)pyrazol-4-yl]oxy-2-azaspiro[3.3]heptan-2-yl]methanone]",7.97
15,"Cn1ncc(CN2CC3(C2)CN(C(=O)N2CC4(CC(n5cnc(C(F)(F)F)n5)C4)C2)C3)c1S(N)(=O)=O [Example 250, 2-methyl-4-[[2-[6-[3-(trifluoromethyl)-1,2,4-triazol-1-yl]-2-azaspiro[3.3]heptane-2-carbonyl]-2,6-diazaspiro[3.3]heptan-6-yl]methyl]pyrazole-3-sulfonamide]",6.01
16,Cn1ncc(CN2CC3(C2)CN(C(=O)N2CC4(CC(n5cnc(C6CC6)n5)C4)C2)C3)c1S(N)(=O)=O [Example 251],6.43
17,"CC(C)(C)c1c[nH]c(CN2CC3(C2)CN(C(=O)N2CC4(CC(n5cnc(C(F)(F)F)n5)C4)C2)C3)n1 [Example 252, [6-[(4-tert-butyl-1H-imidazol-2-yl)methyl]-2,6-diazaspiro[3.3]heptan-2-yl]-[6-[3-(trifluoromethyl)-1,2,4-triazol-1-yl]-2-azaspiro[3.3]heptan-2-yl]methanone]",6.93
18,"CC(C)(C)c1c[nH]c(CN2CC3(C2)CN(C(=O)N2CC4(CC(n5cnc(C6CC6)n5)C4)C2)C3)n1 [Example 253, [6-[(4-tert-butyl-1H-imidazol-2-yl)methyl]-2,6-diazaspiro[3.3]heptan-2-yl]-[6-(3-cyclopropyl-1,2,4-triazol-1-yl)-2-azaspiro[3.3]heptan-2-yl]methanone]",7.41
19,"O=C(N1CC2(CC(Cc3cn(CC(F)(F)F)nn3)C2)C1)N1CC2(CC(n3cnc(C4(O)CC4)n3)C2)C1 [Example 254, [6-[3-(1-hydroxycyclopropyl)-1,2,4-triazol-1-yl]-2-azaspiro[3.3]heptan-2-yl]-[6-[[1-(2,2,2-trifluoroethyl)triazol-4-yl]methyl]-2-azaspiro[3.3]heptan-2-yl]methanone]",7.35
20,"CC(C)(C)c1conc1CN1CC2(C1)CN(C(=O)N1CC3(CC(n4cnc(C(F)(F)F)n4)C3)C1)C2 [Example 255, [6-[(4-tert-butylisoxazol-3-yl)methyl]-2,6-diazaspiro[3.3]heptan-2-yl]-[6-[3-(trifluoromethyl)-1,2,4-triazol-1-yl]-2-azaspiro[3.3]heptan-2-yl]methanone]",7.73
21,"CC(C)(C)c1conc1CN1CC2(C1)CN(C(=O)N1CC3(CC(n4cnc(C5CC5)n4)C3)C1)C2 [Example 256, [6-[(4-tert-butylisoxazol-3-yl)methyl]-2,6-diazaspiro[3.3]heptan-2-yl]-[6-(3-cyclopropyl-1,2,4-triazol-1-yl)-2-azaspiro[3.3]heptan-2-yl]methanone]",8.55
22,"O=C(N1CC2(CC(n3cnc(C4CC4)n3)C2)C1)N1CC2(CN(Cc3cc[nH]n3)C2)C1 [Example 257, [6-(3-cyclopropyl-1,2,4-triazol-1-yl)-2-azaspiro[3.3]heptan-2-yl]-[6-(1H-pyrazol-3-ylmethyl)-2,6-diazaspiro[3.3]heptan-2-yl]methanone]",5.79
23,"CC(F)(F)c1noc(CN2CC3(C2)CN(C(=O)N2CC4(CC(n5cnc(C(F)(F)F)n5)C4)C2)C3)n1 [Example 258, [6-[[3-(1,1-difluoroethyl)-1,2,4-oxadiazol-5-yl]methyl]-2,6-diazaspiro[3.3]heptan-2-yl]-[6-[3-(trifluoromethyl)-1,2,4-triazol-1-yl]-2-azaspiro[3.3]heptan-2-yl]methanone]",7.28
24,"CC(F)(F)c1noc(CN2CC3(C2)CN(C(=O)N2CC4(CC(n5cnc(C6CC6)n5)C4)C2)C3)n1 [Example 259, [6-(3-cyclopropyl-1,2,4-triazol-1-yl)-2-azaspiro[3.3]heptan-2-yl]-[6-[[3-(1,1-difluoroethyl)-1,2,4-oxadiazol-5-yl]methyl]-2,6-diazaspiro[3.3]heptan-2-yl]methanone]",8.05
25,"O=C(N1CC2(CC(n3cnc(C(F)(F)F)n3)C2)C1)N1CC2(CN(Cc3ccnn3CC(F)F)C2)C1 [Example 260, [6-[[2-(2,2-difluoroethyl)pyrazol-3-yl]methyl]-2,6-diazaspiro[3.3]heptan-2-yl]-[6-[3-(trifluoromethyl)-1,2,4-triazol-1-yl]-2-azaspiro[3.3]heptan-2-yl]methanone]",6.78
